{"source": "patent US20100105644A1", "about": "“BOTANICAL COMPOSITION FOR ENHANCED SKIN REPAIR AND USES THEREOF” (The Regents of the University of Michigan, priority 2008, published 2010)", "key": {"[1]": {"assay": "In vitro activities of purified 6-gingerol compared with the crude ginger extract", "settings": "6-gingerol purified to greater than 95%", "excerpt": "The ginger root is also a source of multiple biologically active gingerol compounds, including 6-gingerol, 8-gingerol, 10-gingerol, 6-paradol, 6-shagoal and cassumunin. 6-gingerol is the most abundant analogue in the extract used here, and represents approximately 32% of the total extract. […] In addition, synthetic curcuminoids and synthetic gingerols are also available. One goal is to have a preparation that is inexpensive to prepare so that individuals at risk for non-healing skin ulcers can utilize it on a long-term basis as a wound preventative."}, "MMP-2 [2]": {"system": "MMP-2", "assay": "MMP-2 (gelatin zymography) in organ culture fluid of skin from topically treated healthy hairless rats", "type": "in vivo, rat", "settings": "10% curcumin / 3% ginger extract topical, skin in organ culture 3 days, compared to control skin", "procedure": "(§1) Wounding was performed under sterile conditions in a laminar flow hood. Wound size was determined daily by measuring the X-axis and Y-axis of the scabbed wound and calculating the area of the remaining scab. At the time of wound closure, animals were sacrificed and duplicate 6 mm skin punches were collected from wounded and healed skin. One biopsy was fixed in 10% buffered formalin and used for histological analysis. The other biopsy was put in organ culture for 3 days. Briefly, the skin was cut into pieces of approximately 2 mm on a side, and four-five such pieces were incubated for 3 days in 0.5 mL of a culture medium consisting of growth factor-free, serum-free, Keratinocyte Basal Medium (KBM) (Lonza, Walkersville, Md.). Before use, the culture medium was supplemented with Ca^2+ to a final concentration of 1.4 mM. At the end of the 3-day incubation period, the organ culture fluid was collected and assayed for soluble type I collagen by western blotting and MMP-2 and -9 gelatin zymography (see below).\n(§2) Analysis of Metalloproteinases: MMP-2 and MMP-9: Gelatin-embedded enzymography (zymography) was used to assess levels of latent and active MMP-2 and MMP-9 in organ culture fluids. SDS-PAGE gels were prepared with the incorporation of gelatin (1 mg/mL) at the time of casting."}, "MMP-9 [3]": {"system": "MMP-9", "assay": "MMP-9 (gelatin zymography) in organ culture fluid of healed wound skin, Temovate rat model", "type": "in vivo", "settings": "botanical treatment of Temovate-treated rats", "procedure": "as §1, with “At the end of the 3-day incubation period, the organ culture fluid was collected and assayed for soluble type I collagen by western blotting and MMP-2 and -9 gelatin zymography (see below).” left out\n(§3) Analysis of Metalloproteinases: MMP-2 and MMP-9: Gelatin-embedded enzymography (zymography) was used to assess levels of latent and active MMP-2 and MMP-9 in organ culture fluids. […] After electrophoresis under non-reducing conditions to separate proteins and overnight incubation to allow for substrate digestion, zones of hydrolysis were identified as “holes” in the stained gels and quantified. Values for latent and active MMPs-2 and -9 bands were obtained following digitization and quantification. […]"}, "type I collagen [4]": {"system": "type I collagen", "assay": "Soluble type I collagen (Western blot) in organ culture fluid of healed wound skin, Temovate rat model", "type": "in vivo", "procedure": "Wounding was performed under sterile conditions in a laminar flow hood. Wound size was determined daily by measuring the X-axis and Y-axis of the scabbed wound and calculating the area of the remaining scab. At the time of wound closure, animals were sacrificed and duplicate 6 mm skin punches were collected from wounded and healed skin. One biopsy was fixed in 10% buffered formalin and used for histological analysis. The other biopsy was put in organ culture for 3 days. […]\nAnalysis of Type I Collagen: Organ culture fluids were assayed for type I collagen by Western blot analysis. Briefly, organ culture fluids representing an equal quantity of protein were resolved using 8% SDS-PAGE under non-reducing conditions and transferred to nitrocellulose membranes. […] The membranes were then washed with TTBS and bound antibody was detected using the Phototope-HRP western detection kit (Cell Signaling Technologies, Inc., Danvers, Mass.). Images were scanned, digitized, and quantified using NIH image analysis software.\nAt the time of wound closure, skin from the center of the initial wound (most recently healed skin) was obtained and incubated in organ culture for three days. Organ culture fluids were collected at the end of the incubation period and analyzed for type I collagen and MMP-2/MMP-9. […]"}, "MMP-9 [5]": {"system": "MMP-9", "assay": "MMP-9 (gelatin zymography) in organ culture fluid of skin from topically treated healthy hairless rats", "type": "in vivo, rat", "settings": "10% curcumin / 3% ginger extract topical, skin in organ culture 3 days, compared to control skin", "procedure": "as §1, §2"}, "epidermal keratinocytes": {"system": "epidermal keratinocytes", "assay": "Epidermal keratinocyte proliferation", "excerpt": "There are several surprising and unexpected ways in which the combination of curcumin and 6-gingerol functions. First, these compounds promote collagen building in combination. On one hand, the ginger compound serves to raise the level of collagen-degrading enzymes, such as matrix metalloproteinases (MMPs), as one of its functions. On the other hand, the curcumin compound suppresses the MMP elevation stimulated by the ginger compound. Second, the combination promotes vascularization. During wound healing there is the need for new vascularization. However, new vessel growth needs to halt at some point and some vessels need to regress at a time when the wounded skin is fully healed. The ginger compound stimulates new vessel formation and the combination of curcumin and ginger extract result in a reduction in the number of capillaries in the skin at the end of the wound healing. This allows the skin to return to quiescence. Third, the combination promotes epidermal proliferation. Skin irritation is intimately associated with epidermal hyperplasia. The ginger compound stimulates epidermal keratinocyte proliferation while the curcumin compound suppresses ginger extract-induced keratinocyte growth. This may be the underlying factor responsible for the absence of irritation by the combination, for example, as compared to irritation observed with retinoid therapy. […]"}, "MMP-1 [6]": {"system": "MMP-1", "assay": "MMP-1 levels in human dermal fibroblast culture fluid", "type": "cell-based", "settings": "increasing amounts of curcumin added to 1 μg per mL ginger extract", "experimental": "Fibroblasts were incubated under control conditions (Ca^2+-supplemented KBM culture medium) or in the same culture medium supplemented with 1 μg per mL ginger extract. Increasing amounts of curcumin (X-axis) were added. […] Fibroblasts were incubated under control conditions (Ca^2+—supplemented KBM culture medium) or in the same culture medium supplemented with 1 μg per mL ginger extract. Increasing amounts of curcumin were added."}, "MMP-1 [7]": {"system": "MMP-1", "assay": "MMP-1 levels in human skin organ culture fluid", "type": "cell-based", "settings": "increasing amounts of curcumin added to 1 μg per mL ginger extract", "experimental": "Human skin was incubated in organ culture under control conditions (Ca^2+-supplemented KBM culture medium) or in the same culture medium with 1 μg per mL ginger extract. Increasing amounts of curcumin were added. […] Human skin was incubated in organ culture under control conditions (Ca^2+-supplemented KBM culture medium) or in the same culture medium with 1 μg per mL ginger extract. Increasing amounts of curcumin were added."}, "MMP-2 [8]": {"system": "MMP-2", "assay": "MMP-2 (gelatin zymography) in organ culture fluid of healed wound skin, Temovate rat model", "type": "in vivo", "settings": "botanical treatment of Temovate-treated rats", "procedure": "as §1, with “At the end of the 3-day incubation period, the organ culture fluid was collected and assayed for soluble type I collagen by western blotting and MMP-2 and -9 gelatin zymography (see below).” left out\nas §3"}, "[9]": {"system": "skin of healthy hairless rats", "assay": "Topical treatment of healthy hairless rats: gross appearance and irritation of the skin", "type": "in vivo, rat", "settings": "topical once daily for 14 days, 10% curcumin and 3% ginger extract alone and in combination", "experimental": "The botanicals were dissolved in a vehicle (70% ethanol and 30% propylene glycol) at 10.0% for curcumin and 3% for the ginger extract. The concentrations chosen for the two botanicals were based on results from preliminary in vitro studies and in vivo studies with healthy hairless rats.\nBased on in vitro experiments in which a wide range of concentrations of both curcumin and the ginger extract were tested, healthy hairless rats were treated topically once daily for 14 days with solutions containing 10% curcumin and 3% ginger extract, alone and in combination. Control rats were treated with vehicle alone. Animals were monitored closely during the treatment period of any visible changes in gross appearance of the skin. […] At the end of the treatment period, skin from the treated site of each animal was obtained. The skin was incubated in organ culture for 3 days."}, "type I collagen [10]": {"system": "type I collagen", "assay": "Soluble type I collagen (Western blot) in organ culture fluid of skin from topically treated healthy hairless rats", "type": "in vivo, rat", "settings": "10% curcumin / 3% ginger extract topical, skin in organ culture 3 days, compared to control skin", "procedure": "as §1"}, "[11]": {"system": "abrasion wounds in skin of corticosteroid-treated hairless rats", "assay": "Abrasion wound healing in corticosteroid-treated hairless rats", "type": "in vivo, rat", "settings": "21 days pretreatment, then 15 days with Temovate; 10% curcumin, 3% ginger extract; compared to Temovate plus vehicle alone", "procedure": "Rat Model: Hairless rats were treated for 21 days topically over the back and flank with 500 μL of solutions containing 10% curcumin, 3% ginger extract or the combination of the two. Vehicle alone served as control. During the treatment phase, animals were examined daily for changes in the gross appearance of the skin. After the initial 21-day pretreatment period, rats were treated with Temovate® (clobetasol propionate) cream along with the botanicals for an additional 15 day period. Temovate® (0.05% solution of clobetasol propionate in cream base) was obtained from Glaxo Smith Kline (Philadelphia, Pa.). Temovate® was applied in the morning and botanicals were applied in the evening. At the end of the treatment period, abrasion wounding was performed. […] A pre-measured circular area, approximately 6 cm in diameter, was scrubbed with a stiff-nylon bristle brush lightly wetted with acetone and concomitantly abraded with a piece of course sanding sponge. […]\nWounding was performed under sterile conditions in a laminar flow hood. Wound size was determined daily by measuring the X-axis and Y-axis of the scabbed wound and calculating the area of the remaining scab. […]\nStatistical Analysis: Data were analyzed using one-way analysis of variance (ANOVA) followed by the Bonferroni posttest for selected pairs (GraphPad Prism version 4.00 for Windows, GraphPad Software, San Diego, Calif.). […]"}}}
{"smiles": "CCCCCC(O)CC(=O)CCc1ccc(OC)c(O)c1", "note": "(stereo not shown) [6-gingerol, 5-hydroxy-1-(3-hydroxy-4-methoxyphenyl)decan-3-one]", "values": [{"measurement": "in vitro activities compared with the crude extract", "setting": "[1]", "result": "same in vitro activities as the crude extract itself"}]}
{"smiles": "COc1cc(/C=C/C(=O)CC(=O)/C=C/c2ccc(O)c(OC)c2)ccc1O", "note": "[curcumin, (1E,6E)-1,7-bis(4-hydroxy-3-methoxyphenyl)hepta-1,6-diene-3,5-dione]", "values": [{"measurement": "MMP-2 in organ culture fluid", "setting": "MMP-2 [2]", "result": "decrease"}, {"measurement": "MMP-9 level in organ culture fluid", "setting": "MMP-9 [3]", "result": "reduced"}, {"measurement": "type I collagen in organ culture fluid", "setting": "type I collagen [4]; botanicals prior to and during Temovate treatment, compared to rats treated with Temovate and vehicle", "result": "elevated"}, {"measurement": "type I collagen in organ culture fluid", "setting": "type I collagen [4]; treatment along with Temovate, compared to control culture fluids from rats not exposed to Temovate", "result": "higher"}, {"measurement": "MMP-9 in organ culture fluid", "setting": "MMP-9 [5]", "result": "decreased"}, {"measurement": "ginger extract-induced keratinocyte growth", "setting": "epidermal keratinocytes", "result": "suppresses"}, {"measurement": "ginger extract-induced MMP-1 expression in fibroblast culture fluid", "setting": "MMP-1 [6]", "result": "inhibited"}, {"measurement": "ginger extract-induced MMP-1 expression in human skin organ culture fluid", "setting": "MMP-1 [7]", "result": "inhibited"}, {"measurement": "MMP-2 level in organ culture fluid", "setting": "MMP-2 [8]", "result": "reduced"}, {"measurement": "skin irritation", "setting": "[9]", "result": "No irritation"}, {"measurement": "soluble type I collagen in organ culture fluid", "setting": "type I collagen [10]", "result": "increased"}, {"measurement": "wound closure (percent of wound healed)", "setting": "[11]", "result": "improved"}]}
